# Target: Histone deacetylase 1 (Homo sapiens, UniProt Q13547)
# Sequence (Q13547 whole entry): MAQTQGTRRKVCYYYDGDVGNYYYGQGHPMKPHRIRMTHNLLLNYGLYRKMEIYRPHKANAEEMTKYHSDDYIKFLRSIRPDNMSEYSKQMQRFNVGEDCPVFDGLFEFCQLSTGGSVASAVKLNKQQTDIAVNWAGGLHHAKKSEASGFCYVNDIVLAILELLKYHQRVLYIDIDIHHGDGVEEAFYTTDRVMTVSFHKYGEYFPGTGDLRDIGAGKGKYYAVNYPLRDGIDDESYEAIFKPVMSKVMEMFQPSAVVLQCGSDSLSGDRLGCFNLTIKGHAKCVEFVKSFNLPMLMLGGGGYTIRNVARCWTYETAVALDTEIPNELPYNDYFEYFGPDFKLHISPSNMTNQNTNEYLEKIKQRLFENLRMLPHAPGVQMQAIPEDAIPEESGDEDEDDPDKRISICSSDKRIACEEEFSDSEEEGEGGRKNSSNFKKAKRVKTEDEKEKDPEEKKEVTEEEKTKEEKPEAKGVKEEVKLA
row,Compound,IC50 [nM]
1,O=C(/C=C/c1ccc2c(c1)C(=O)N(Cc1ccccc1)C2=O)NO,572

# Target: Histone deacetylase
# Test: Effective concentration for inhibition of histone deacetylase
# Type: protein assay, Homo sapiens
row,Compound,EC50 [nM]
1,O=C(/C=C/c1ccc2c(c1)C(=O)N([C@@H](COC(=O)c1ccccc1)c1ccccc1)C2=O)NO,3790
2,O=C(/C=C/c1ccc2c(c1)C(=O)N(C(c1ccccc1)c1ccccc1)C2=O)NO,2090
3,O=C(NO)c1ccc2c(c1)C(=O)N(Cc1ccccc1)C2=O,4160
4,C[C@@H](c1ccccc1)N1C(=O)c2ccc(/C=C/C(=O)NO)cc2C1=O,250
5,O=C(/C=C/c1ccc2c(c1)C(=O)N(Cc1ccccc1)C2=O)NO,148
6,O=C(/C=C/c1ccc2c(c1)C(=O)N(CCc1ccccc1)C2=O)NO,177
7,O=C(NO)c1ccc2c(c1)C(=O)N(CCc1ccccc1)C2=O,6630
8,O=C(/C=C/c1ccc2c(c1)C(=O)N([C@H](COC(=O)c1ccccc1)c1ccccc1)C2=O)NO,763

# More lines, now with the values ahead:
row,EC50 [nM],Compound
1,125000,O=C(NO)c1ccc2c(c1)C(=O)N(c1ccccc1)C2=O
2,2080,O=C(/C=C/c1ccc2c(c1)C(=O)N(c1ccccc1)C2=O)NO
3,291,C[C@H](c1ccccc1)N1C(=O)c2ccc(/C=C/C(=O)NO)cc2C1=O
4,407,O=C(CCc1ccc2c(c1)C(=O)N(Cc1ccccc1)C2=O)NO
5,7890,O=C(/C=C/c1ccc2c(c1)C(=O)N(CC(c1ccccc1)c1ccccc1)C2=O)NO
6,186,COc1ccc(CN2C(=O)c3ccc(/C=C/C(=O)NO)cc3C2=O)cc1
7,474,Cc1ccc(CN2C(=O)c3ccc(/C=C/C(=O)NO)cc3C2=O)cc1

# Target: T1, Protein deacetylase HDAC6 (Homo sapiens, UniProt Q9UBN7)
# T1 sequence (Q9UBN7 whole entry): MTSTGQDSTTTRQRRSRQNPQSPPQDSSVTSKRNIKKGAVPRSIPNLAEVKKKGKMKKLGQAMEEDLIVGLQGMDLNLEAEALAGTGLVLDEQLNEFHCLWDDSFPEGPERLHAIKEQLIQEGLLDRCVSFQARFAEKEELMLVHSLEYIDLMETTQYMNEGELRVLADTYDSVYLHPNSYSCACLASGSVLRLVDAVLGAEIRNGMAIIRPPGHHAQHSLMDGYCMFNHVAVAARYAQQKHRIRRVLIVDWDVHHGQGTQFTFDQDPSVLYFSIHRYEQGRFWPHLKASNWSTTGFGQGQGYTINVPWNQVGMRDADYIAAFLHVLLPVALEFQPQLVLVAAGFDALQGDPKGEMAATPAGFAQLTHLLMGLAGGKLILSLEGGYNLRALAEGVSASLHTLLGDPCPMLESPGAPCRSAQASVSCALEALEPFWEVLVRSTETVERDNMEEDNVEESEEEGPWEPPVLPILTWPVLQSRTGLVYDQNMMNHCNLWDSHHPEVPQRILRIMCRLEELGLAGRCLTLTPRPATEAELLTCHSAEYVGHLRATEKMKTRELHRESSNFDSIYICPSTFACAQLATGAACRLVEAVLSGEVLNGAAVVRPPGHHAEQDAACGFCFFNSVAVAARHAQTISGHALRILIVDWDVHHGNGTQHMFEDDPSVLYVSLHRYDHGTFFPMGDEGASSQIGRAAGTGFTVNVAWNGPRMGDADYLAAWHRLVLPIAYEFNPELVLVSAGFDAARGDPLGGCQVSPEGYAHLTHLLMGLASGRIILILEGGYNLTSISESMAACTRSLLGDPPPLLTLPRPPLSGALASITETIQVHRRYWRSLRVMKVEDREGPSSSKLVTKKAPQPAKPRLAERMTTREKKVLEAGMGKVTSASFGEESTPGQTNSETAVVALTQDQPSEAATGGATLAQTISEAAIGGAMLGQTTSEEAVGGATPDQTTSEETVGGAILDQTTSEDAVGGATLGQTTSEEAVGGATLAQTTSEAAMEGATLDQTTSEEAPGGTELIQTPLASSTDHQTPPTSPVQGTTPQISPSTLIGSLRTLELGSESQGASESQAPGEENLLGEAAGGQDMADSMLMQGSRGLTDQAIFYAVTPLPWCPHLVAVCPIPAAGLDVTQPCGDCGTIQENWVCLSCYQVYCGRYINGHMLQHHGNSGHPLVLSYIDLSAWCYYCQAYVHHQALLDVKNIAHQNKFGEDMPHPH
row,Compound,IC50 [nM]
1,O=C(/C=C/c1ccc2c(c1)C(=O)N(Cc1ccccc1)C2=O)NO,709

# Target: Histone deacetylase 4 (Homo sapiens, UniProt P56524)
# Sequence (P56524 whole entry): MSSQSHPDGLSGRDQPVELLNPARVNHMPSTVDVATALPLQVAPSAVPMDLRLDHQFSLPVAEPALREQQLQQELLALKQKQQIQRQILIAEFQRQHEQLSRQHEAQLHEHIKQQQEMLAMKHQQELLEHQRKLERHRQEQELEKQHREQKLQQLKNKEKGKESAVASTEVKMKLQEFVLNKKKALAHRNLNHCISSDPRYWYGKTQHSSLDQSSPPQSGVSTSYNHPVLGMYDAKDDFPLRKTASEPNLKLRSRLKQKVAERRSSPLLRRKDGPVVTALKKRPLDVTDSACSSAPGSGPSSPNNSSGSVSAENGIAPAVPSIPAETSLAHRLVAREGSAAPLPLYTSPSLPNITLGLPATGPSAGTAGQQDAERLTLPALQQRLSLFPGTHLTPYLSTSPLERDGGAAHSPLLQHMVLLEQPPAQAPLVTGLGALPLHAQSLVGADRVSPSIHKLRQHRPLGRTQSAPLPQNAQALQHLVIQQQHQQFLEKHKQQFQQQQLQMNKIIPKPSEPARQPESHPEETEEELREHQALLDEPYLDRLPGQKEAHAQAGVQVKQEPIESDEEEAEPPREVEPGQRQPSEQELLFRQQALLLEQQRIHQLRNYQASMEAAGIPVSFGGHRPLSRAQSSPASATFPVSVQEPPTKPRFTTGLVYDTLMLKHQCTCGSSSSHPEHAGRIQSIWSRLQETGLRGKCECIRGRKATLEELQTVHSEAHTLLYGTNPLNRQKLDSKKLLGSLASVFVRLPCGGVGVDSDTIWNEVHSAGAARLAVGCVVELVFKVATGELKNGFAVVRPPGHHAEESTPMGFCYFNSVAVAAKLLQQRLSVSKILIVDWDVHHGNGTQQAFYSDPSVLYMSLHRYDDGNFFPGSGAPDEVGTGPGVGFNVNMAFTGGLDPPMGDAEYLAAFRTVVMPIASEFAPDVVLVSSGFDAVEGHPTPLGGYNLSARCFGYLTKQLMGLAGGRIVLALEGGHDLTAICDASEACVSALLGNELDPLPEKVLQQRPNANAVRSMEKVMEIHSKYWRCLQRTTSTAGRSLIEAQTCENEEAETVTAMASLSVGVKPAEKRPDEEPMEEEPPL
row,Compound,IC50 [nM]
1,O=C(/C=C/c1ccc2c(c1)C(=O)N(Cc1ccccc1)C2=O)NO,358

# Source: ChEMBL document CHEMBL1142838, “Design and synthesis of phthalimide-type histone deacetylase inhibitors” (Bioorg Med Chem Lett, 2005)
